Measured values taken from patent US11564959B2 (SHISEIDO COMPANY, LTD., priority 2016, dated 2023).
Counter-ions that a name gives are not always drawn.

Legend:
[1] = test system: MCSP-positive cells; assay: Tissue culture of human skin with MMP and heparanase inhibiting agents, MCSP staining; format: cell-based; conditions: CGS27023A 10 μM and BIPBIPU 10 μM added together, 4 days of culturing, abdominal skin
Description: DAPI was also used for nuclear staining. […] DAPI was also used for nuclear staining.

[2] = test system: PDGF-BB; assay: Membrane array of cytokines in epidermis protein extract of three-dimensional skin model; format: cell-based; conditions: CGS27023A 10^−5 M and BIPBIPU 10^−5 M added together, 2nd, 4th and 7th day, data not shown
Description: The epidermis was collected from the skin model on the 2nd day, 4th day and 7th day of culturing, and RIPA buffer by Nacalai was used to prepare a protein extract. Using a membrane array kit (ab134002) by Abcam Co., the amounts of different cytokines in the protein extract were detected using a LAS-1000UVmini by Fujifilm and digitized with the included software, and a graph was drawn (data not shown). The cytokines whose amounts increased compared to the control were selected as candidate cytokines that promote type V collagen expression. Three cytokines including PDGF-BB were selected as candidate cytokines.

[3] = test system: laminin 511; conditions: CGS27023A 10 μM and BIPBIPU 10 μM added together, 4 days of culturing, abdominal skin
Procedure: The taken samples were cultured for 4 days in culture medium containing the MMP9 inhibiting agent CGS270234 (10 μM) and the heparanase inhibiting agent BIPBIU (10 μM).

[4] = test system: laminin 511; assay: Ex vivo human skin organ culturing with HEI, laminin 511 staining; conditions: 0.01% HEI, 5 days, abdominal skin
[5] = test system: MCSP-positive cells; assay: Ex vivo human skin organ culturing with HEI, MCSP staining; format: cell-based; conditions: 0.01% HEI, 5 days, abdominal skin
[6] = target: T1, recombinant human MMP-9 (Homo sapiens, UniProt P14780); assay: MMP-9 colorimetric drug discovery kit assay; format: biochemical; conditions: 0.0001%, 0.001% and 0.01% HEI, FIG. 9
T1 construct: purchased Enzo Life Sciences Inc
Procedure: An MMP9 assay was carried out using a Matrix Metalloproteinase-9 (MMP-9) colorimetric drug discovery kit (Enzo Life Sciences Inc.). Specifically, HEI was added to a recombinant human MMP-9 enzyme solution to 0.0001%, 0.001% and 0.01% concentration. After mixing with chromogenic MMP-9 substrate, the absorbance at 412 nm was measured every other minute. The MMP-9 inhibition rate (%) for HEI was calculated from the slope of the absorbance (OD/min).

[7] = test system: filaggrin; assay: Ex vivo human skin organ culturing with HEI, filaggrin staining; format: cell-based; conditions: 0.01% HEI, 5 days
Procedure: (§1) The taken samples were cultured for 5 days in culture medium containing 0.01% HEI. […] The excess moisture adhering to the cultured skin sample was wiped off with a Kimtowel, and after allowing it to stand for 5 minutes, a Vapometer was used for TEWL measurement, and a Corneometer was used to measure the stratum corneum moisture content.
DAPI was also used for nuclear staining.

[8] = test system: human skin; assay: Ex vivo human skin organ culturing with HEI, TEWL and stratum corneum moisture; format: cell-based; conditions: 0.01% HEI, 5 days
Procedure: as §1

[9] = target: T2, heparanase (Homo sapiens, UniProt Q9Y251); assay: Heparanase assay on heparan sulfate immobilization plate with A431 cell lysate; format: biochemical; conditions: 0.0005%, 0.005% or 0.05% HEI, 3 hours at 37° C., FIG. 8
T2 construct: endogenous in cells; host or cells: A431 cell lysate
T2 sequence (Q9Y251 158-543 limits assumed): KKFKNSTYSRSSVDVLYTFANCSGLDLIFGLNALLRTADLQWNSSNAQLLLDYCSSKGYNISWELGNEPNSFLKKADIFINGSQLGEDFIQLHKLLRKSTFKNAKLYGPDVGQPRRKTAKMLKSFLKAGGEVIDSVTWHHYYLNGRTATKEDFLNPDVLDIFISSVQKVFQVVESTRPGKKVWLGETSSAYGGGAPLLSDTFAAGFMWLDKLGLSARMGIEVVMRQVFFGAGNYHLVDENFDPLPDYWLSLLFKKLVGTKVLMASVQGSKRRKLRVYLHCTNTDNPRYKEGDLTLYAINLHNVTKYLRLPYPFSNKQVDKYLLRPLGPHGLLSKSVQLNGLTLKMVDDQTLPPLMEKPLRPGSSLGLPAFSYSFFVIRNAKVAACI
T2 sequence (Q9Y251 36-109 limits assumed): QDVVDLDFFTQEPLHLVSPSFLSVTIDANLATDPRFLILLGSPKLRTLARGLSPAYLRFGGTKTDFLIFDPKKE
Procedure: A heparanase assay was carried out using a heparan sulfate immobilization plate, as described in Behzad F, et al., Analytical Biochemistry, 320, pp. 207-213, 2003. Specifically, heparan sulfate (Seikagaku, Tokyo, Japan) was reacted with photobiotin to prepare biotinylated heparan sulfate. The biotinylated heparan sulfate was fixed onto a carbohydrate-binding surface plate (Coastar, Tokyo, Japan). A431 cell lysate (50 μg/ml) and 0% HEI, 0.0005% HEI, 0.005% HEI or 0.05% HEI were added onto the biotinylated heparan sulfate immobilized plate, incubated for 3 hours at 37° C., and then rinsed with PBS-T. Next, peroxidase-avidin (Vector Laboratories, Inc. CA, USA) was incubated at 37° C. for 1 hour. A 3,3′,5,5′-tetramethylbenzidine (TMB) solution (Bio-Rad, Tokyo, Japan) was added, and the plate was further incubated at room temperature for 30 minutes. The absorbance at 450 nm was measured to determine the heparanase inhibiting effect.

[10] = In vivo human application test of HEI solution on the face, TEWL and stratum corneum moisture; conditions: 1.5% HEI solution on one side of the face, twice a day for 4 weeks, water on other side
Procedure: Next, 20 males from 20 to 50 years of age were asked to apply a 1.5% HEI solution on one side of the face and water on the other side of the face, twice a day for 4 weeks. Before application, 2 weeks after application and 4 weeks after application, the TEWL was measured using a Vapometer, and a Corneometer was used to measure the stratum corneum moisture content.

[11] = test system: gene COL5A1 for type V collagen; assay: COL5A1 expression in human fibroblasts after addition of recombinant cytokine; format: cell-based; conditions: normal human fibroblasts, 24 hours
Procedure: The selected recombinant cytokine proteins were purchased from R&D Co. Normal human fibroblasts from skin harvested from 14-month-old children were cultured for 24 hours in 10% FBS-added DMEM, and the medium in the cultured product was exchanged with another medium added to DMEM medium containing 25% serum for a prescribed concentration of each cytokine, after which culturing was continued for 24 hours. After culturing, the cells were collected and the mRNA was extracted with Trizol. The cDNA was rapidly prepared, and the aforementioned primers were used for real-time PCR to evaluate the gene expression levels of the gene COL5A1 for type V collagen (FIG. 15).

T1 sequence (P14780 107-444 limits assumed): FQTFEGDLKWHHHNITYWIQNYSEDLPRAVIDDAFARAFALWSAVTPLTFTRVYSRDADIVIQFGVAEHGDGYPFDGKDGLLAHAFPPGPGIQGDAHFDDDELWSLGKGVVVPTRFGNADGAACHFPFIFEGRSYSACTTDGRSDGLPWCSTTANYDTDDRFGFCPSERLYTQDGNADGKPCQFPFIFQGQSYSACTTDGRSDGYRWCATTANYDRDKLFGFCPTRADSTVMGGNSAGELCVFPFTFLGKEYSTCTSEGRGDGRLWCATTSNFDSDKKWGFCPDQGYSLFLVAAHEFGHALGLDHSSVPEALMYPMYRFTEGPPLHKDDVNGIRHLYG

O=C(Nc1ccc(-c2nc3ccccc3[nH]2)cc1)Nc1ccc(-c2nc3ccccc3[nH]2)cc1 [BIPBIPU, 1-[4-(1H-benzoimidazol-2-yl)phenyl]-3-[4-(1H-benzoimidazol-2-yl)phenyl]urea]
MCSP-positive cells after tissue culture [1]: maintenance or augmentation of MCSP | amount of PDGF-BB in epidermis protein extract compared to the control [2]: increased

COc1ccc(S(=O)(=O)N(Cc2cccnc2)[C@@H](C(=O)NO)C(C)C)cc1 [CGS27023A, N-hydroxy-2(R)-[[(4-methoxy-phenyl)sulfonyl](3-picolyl)amino]-3-methylbutanamide hydrochloride]
MCSP-positive cells after tissue culture [1]: maintenance or augmentation of MCSP | laminin 511 in the basal membrane after tissue culture [3]: augmentation of laminin 511 | amount of PDGF-BB in epidermis protein extract compared to the control [2]: increased

O=C1NCCN1CCO [HEI, 1-(2-Hydroxyethyl)-2-imidazolidinone]
amount of laminin 511 after culturing [4]: maintained | MCSP-positive cell count on the basal membrane after culturing [5]: maintained | MMP9 inhibition [6]: inhibit MMP9 activity in a dose-dependent manner | filaggrin protein expression [7]: tendency for increase | stratum corneum moisture content ([8]; Corneometer): increased | TEWL ([8]; Vapometer): decreased | heparanase inhibiting effect [9]: inhibit heparanase activity in a dose-dependent manner | TEWL [10]: decreased | stratum corneum moisture content [10]: increased

B1: PDGF-BB: recombinant cytokine protein purchased from R&D Co. (protein, UniProt P01127 82-190, looked up)
Platelet-derived growth …: SLGSLTIAEPAMIAECKTRTEVFEISRRLIDRTNANFLVWPPCVEVQRCSGCCNNRNVQCRPTQVQLRPVQVRKIEIVRKKPIFKKATVTLEDHLACKCETVAAARPVT
type V collagen production (COL5A1 gene expression) [11]: significantly increased
